One may read the LD50 as the dose at which mortality reaches 50%. The IC50 is the point on the concentration scale where inhibition reaches its midpoint. A higher IC50 goes with weaker potency.

The values below come from patent US5405864A, “Chemotherapeutic maleimides” (Syntex (U.S.A.) Inc., priority 1993, dated 1995).

Molecules are shown by their SMILES.

Series [1] deals with colon carcinoma cell line HT-29. Kind of series: tumor cell growth inhibition in culture, colon carcinoma cell line HT-29. It counts as cell-based. The conditions noted are these: Homo sapiens, read-out: GI50 (concentration to inhibit tumor cell growth in culture by 50%). An excerpt:
(§1) The compounds of the present invention are protein kinase C inhibitors useful as chemotherapeutic agents for treating mammals, particularly humans, having a variety of malignant disease states including: small cell lung carcinoma, colon carcinoma, breast tumors corresonding to MCF7, MDA-MB-435 and MDA-N cell lines, and PKC overexpressing tumors, such as those corresponding to CHO/PKC-ε. […] For example, 3-[1-(3-isothioureidopropyl)-2-(thianaphthen-2-yl)indol-3-yl]-1H-pyrrole-2,5-dione has a GI50 (concentration to inhibit tumor cell growth in culture by 50%) of […] against breast cell line MDA-N versus 1 μM against colon carcinoma cell line HT-29.

Series [2] is described as follows: toxicity in mice of the Small Cell Lung Carcinoma Xenograft Assay. Type of series: in vivo, Female athymic nude mice. Here is the method: (§2) H82 small cell lung carcinoma (SCLC) cells are thawed from frozen stock and grown in RPMI. Prior to injection, the cells are trypsinized, counted, and resuspended in PBS:solubilized basement membrane preparation (Matrigel®) (1:2) to concentrations of 5×10^5 or 1.5×10^6 […]. Female athymic nude mice, 4-5 weeks old (Harlan Sprague Dawley) receive 200R/mouse irradiation one day prior to challenge, and are given 0.2 ml SCLC/mouse by subcutaneous injection in the flank (concentrations of 1×10^5 or 3×10^5 SCLC cells/mouse). Groups of 30 mice are treated intraperitoneally, once a day, with test compound at 10 mg/kg (solubilized in DMSO and diluted to final vehicle concentration of 20% DMSO in PBS). Treatments are started 2 hours post-challenge and continue for 45 days. Vehicle treated and untreated mice are used as controls.

The target in the next series is T1, β1 isozyme of PKC (Rattus norvegicus, UniProt P68403).
T1 construct: β1 isozyme of PKC from rat brain; from tissue; host or cells: rat brain
Nature of the series: Protein kinase C inhibition assay (32P incorporation from γ-32P ATP into synthetic peptide substrate). The conditions noted are these: β1 isozyme of PKC from rat brain; 50 μM ATP; five minutes at room temperature. It counts as biochemical. The protocol:
In vitro activity for protein kinase C inhibition, is quantitated by measuring incorporation of ^32 P from γ-^32 P ATP into synthetic peptide substrates.
Protein Kinase C (PKC) inhibitory activity is quantitated by measuring incorporation of ^32 P from γ-^32 P ATP into synthetic peptide substrates. The inhibitory potential is measured using the β1 isozyme of PKC from rat brain and the synthetic peptide substrate ala-lys-arg-arg-arg-leu-ser-ser-leu-arg-ala.
A reaction mixture containing 25 mM Tris-HCl, pH 7.5, 2.5 mM Mg(NO3), 1.0 mM EGTA, 20 μM substrate, 1 μg/mL phosphatidylserine (PS), 5×10^-6 M diacylglycerol(di-C8), and 50 μM ATP is spiked with γ-^32 P ATP (>5,000 Ci/mmol) to provide approximately 10^6 CPM per reaction and 0.08 μg/mL PKC in a 50 μl volume per well. The assay is run with or without test compound, added at various concentrations. After five minutes incubation at room temperature, the reaction is stopped by the addition of 0.2V of a 50% TCA solution. A 30 μl sample from each well (control and test compound) is then spotted onto Whatman P-81 ion exchange chromatography paper, and 32-P incorporation is then counted on a Beckman LS 5000 TA liquid scintillation counter. The percent inhibition of PKC activated by […] diC8 and 1 μg/mL phosphatydil serine is determined according to the formula: […]
and the concentration necessary to achieve 50% Inhibition is determined.

A further series has as its system breast cell line MDA-N. Nature of the series: tumor cell growth inhibition in culture, breast cell line MDA-N. Type of series: cell-based. The note with it: Homo sapiens, read-out: GI50 (concentration to inhibit tumor cell growth in culture by 50%).
From the text: as §1

The next series deals with HT-29 colon cancer cells. Kind of series: Colon Carcinoma Xenograft Assay. It counts as in vivo, Female athymic nude mice. Here is the method: (§3) In vivo activity for chemotherapeutic agents, particularly for treating malignant diseases, is determined by tumor inhibition assays, for example as described by Maneckjee, et al., in Proc. Natl. Acad. Sci. USA, Vol 89, 1169-1173 (February 1992). Variations of the assay can be performed, e.g., using HT-29 colon carcinoma cells, SCLC H82 cells, CHO/PKC-β and CHO/PKC-ε cells.
as §2
(§4) Statistical Analysis: A Fisher Exact test [Kendall M., Stuart A., The Advanced Theory of Statistics, Vol., 2 (MacMillan Pub. Co. N.Y., 1979)] is used to compare tumor occurrence rates between groups. The Mann Whitney U test [Hollander N., Wolfe D. A., Non-parametric Statistical Methods (John Wiley and Sons, Inc., N.Y., 1973)] is used to compare differences in survival time and a log rank test (Kalbfleisch J. D., Prentice R. L., The Statistical Analysis of Failure Time Data (John Wiley and Sons, Inc., N.Y. 1980)] is used to compare the time for each tumor to reach 2000 mm^3.
By following the procedure of Example 18 and substituting H82 small cell lung carcinoma cells with HT-29 colon cancer cells, grown to a concentration of 5×10^6 cells/ml and administered at a concentration of 1×10^6 cells/mouse, activity against colon carcinoma is determined.

Series [3] relates to H82 small cell lung carcinoma (SCLC) cells. Kind of series: Small Cell Lung Carcinoma Xenograft Assay. It counts as in vivo, Female athymic nude mice. Here is the method:
as §3
This procedure is a modification of a procedure described by Maneckjee, et al., in Proc. Natl. Acad. Sci. USA, Vol 89, 1169-1173 (February 1992).
as §2, §4

T1 sequence (P68403 whole entry): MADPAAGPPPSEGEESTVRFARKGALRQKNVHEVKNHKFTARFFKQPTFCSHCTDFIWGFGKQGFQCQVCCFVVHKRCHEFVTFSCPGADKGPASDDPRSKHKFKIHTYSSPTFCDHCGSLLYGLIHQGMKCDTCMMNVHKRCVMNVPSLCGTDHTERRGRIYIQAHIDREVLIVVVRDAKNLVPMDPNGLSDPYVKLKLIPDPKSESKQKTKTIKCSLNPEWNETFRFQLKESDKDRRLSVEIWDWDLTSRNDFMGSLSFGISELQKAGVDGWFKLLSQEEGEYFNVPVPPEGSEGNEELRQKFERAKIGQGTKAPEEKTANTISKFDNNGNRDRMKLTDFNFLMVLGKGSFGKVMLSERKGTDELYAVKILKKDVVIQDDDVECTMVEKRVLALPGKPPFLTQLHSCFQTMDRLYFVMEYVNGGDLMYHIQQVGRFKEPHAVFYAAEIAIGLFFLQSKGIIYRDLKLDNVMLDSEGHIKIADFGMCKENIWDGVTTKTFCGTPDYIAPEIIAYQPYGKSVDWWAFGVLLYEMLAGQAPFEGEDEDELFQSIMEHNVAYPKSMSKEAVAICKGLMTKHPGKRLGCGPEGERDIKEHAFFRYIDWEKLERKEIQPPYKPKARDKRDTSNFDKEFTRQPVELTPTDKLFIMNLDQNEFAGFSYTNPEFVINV

For the molecule `N=C(N)SCCCn1c(-c2cc3ccccc3s2)c(C2=CC(=O)NC2=O)c2ccccc21` [3-[1-(3-isothioureidopropyl)-2-(thianaphthen-2-yl)indol-3-yl]-1H-pyrrole-2,5-dione], the GI50 in series [1] is 1 µM; in the series with breast cell line MDA-N, 0.01 µM. Moreover, the “toxicity (in words)” value in series [2] (10 mg/kg intraperitoneally once a day) is recorded as “exhibitied toxicity at 10 mg/kg”. In series [2] (mouse, in vivo, ip, after 6 days, read-out: chronic LD50), the LD50 at 144 h is about 20 mg/kg. At β1 isozyme of PKC, this molecule came in with an IC50 of 0.003 µM. Also, the “prevention of HT-29 tumor formation (in words)” value with HT-29 colon cancer cells (1×10^6 cells/mouse, procedure of Example 18) is reported as “not preventing HT-29 tumor formation entirely”. The “number of mice having tumors ≥2000 mm^3 at Day 42 of treatment (in words)” value in the series on HT-29 colon cancer cells (HT-29, 1×10^6 cells/mouse, p<0.05) is given as “reduced”; in series [3] (either challenge level (3×10^5 or 1×10^5 SCLC cells/mouse), 10 mg/kg i.p. once a day, p<0.05) it was “reduced with either challenge level”. For the same molecule, the “tumor size, fold smaller than vehicle-treated or untreated control groups” value in the series with HT-29 colon cancer cells (HT-29, 1×10^6 cells/mouse, procedure of Example 18) is “approximately 1.5 fold”; in series [3] (challenge of 1×10^5 SCLC cells/mouse, 10 mg/kg i.p. once a day), about 3 fold; in series [3] (challenge of 3×10^5 SCLC cells/mouse, 10 mg/kg i.p. once a day) it was “approximately 2 fold”. The “median time for the tumor volume to reach 2000 mm^3” value in the series on HT-29 colon cancer cells (HT-29, 1×10^6 cells/mouse, vehicle-treated control Day 33 (p<0.01)) is 37 days; in series [3] (challenge of 1×10^5 SCLC cells/mouse, 10 mg/kg i.p. once a day, vehicle-treated control Day 35 (p<0.001)), over 42 days; in series [3] (challenge of 3×10^5 SCLC cells/mouse, 10 mg/kg i.p. once a day, vehicle-treated control Day 31 (p<0.001)) it was 39 days. Moreover, the “extension of median time for the tumor volume to reach 2000 mm^3” value in the series on HT-29 colon cancer cells (HT-29, 1×10^6 cells/mouse, vs vehicle-treated control Day 33 (p<0.01)) is listed as 4 days; in series [3] (challenge of 1×10^5 SCLC cells/mouse, 10 mg/kg i.p. once a day, vs vehicle-treated control Day 35 (p<0.001)), over 7 days; in series [3] (challenge of 3×10^5 SCLC cells/mouse, 10 mg/kg i.p. once a day, vs vehicle-treated control Day 31 (p<0.001)) it was 8 days. The “inhibition of tumor growth (in words)” value with HT-29 colon cancer cells (HT-29 xenograft, 1×10^6 cells/mouse, 10 mg/kg i.p. once a day (procedure of Example 18)) is reported as “did significantly slow tumor growth”; in series [3] (SCLC H82 xenograft, 10 mg/kg intraperitoneally once a day, 45 days), “did significantly slow tumor growth”. The “prevention of SCLC tumor formation (in words)” value in series [3] (10 mg/kg intraperitoneally once a day, 45 days) is on record as “not preventing SCLC tumor formation entirely”.

For the molecule `NCCCn1c(-c2cc3ccccc3s2)c(C2=CC(=O)NC2=O)c2ccccc21` [3-[1-(3-aminopropyl)-2-(thianaphthen-2-yl)indol-3-yl]-1H-pyrrole-2,5-dione], at β1 isozyme of PKC, half-maximal inhibition (IC50) was put at 0.04 µM.
